Measurements published in ChEMBL document CHEMBL1201862, “PubChem BioAssay data set” (2004).
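Five concentrations, 48 hours, 96-well plates. GI50 is the concentration that inhibits growth by half.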 Calls of active or inactive are those of the source. Cut-off read from the data, not from the text of the source: active = GI50 up to about 1.1 µM and inactive = higher.

Columns and labels:
Assay in all cases: NCI-60 cell line screen, 48 h
786-0 = test system: 786-0
A498 = test system: A498
A549 = test system: A549
ACHN = test system: ACHN
BT-549 = test system: BT-549
CAKI-1 = test system: CAKI-1
COLO 205 = test system: COLO 205
DU-145 = test system: DU-145
EKVX = test system: EKVX
HCC 2998 = test system: HCC 2998
HCT-116 = test system: HCT-116
HCT-15 = test system: HCT-15
HOP-62 = test system: HOP-62
HOP-92 = test system: HOP-92
HT-29 = test system: HT-29
Hs-578T = test system: Hs-578T
IGROV-1 = test system: IGROV-1
K562 = test system: K562
KM12 = test system: KM12
LOX IMVI = test system: LOX IMVI
M14 = test system: M14
MCF7 = test system: MCF7
MDA-MB-231 = test system: MDA-MB-231
MDA-MB-435 = test system: MDA-MB-435
MDA-N = test system: MDA-N
MOLT-4 = test system: MOLT-4
Malme-3M = test system: Malme-3M
NCI-H226 = test system: NCI-H226
NCI-H23 = test system: NCI-H23
NCI-H460 = test system: NCI-H460
NCI-H522 = test system: NCI-H522
NCI/ADR-RES = test system: NCI/ADR-RES
OVCAR-3 = test system: OVCAR-3
OVCAR-4 = test system: OVCAR-4
OVCAR-5 = test system: OVCAR-5
OVCAR-8 = test system: OVCAR-8
PC-3 = test system: PC-3
RPMI-8226 = test system: RPMI-8226
SF-268 = test system: SF-268
SF-295 = test system: SF-295
SF-539 = test system: SF-539
SK-MEL-28 = test system: SK-MEL-28
SK-MEL-2 = test system: SK-MEL-2
SK-MEL-5 = test system: SK-MEL-5
SN12C = test system: SN12C
SNB-19 = test system: SNB-19
SR = test system: SR
SW-620 = test system: SW-620
T47D = test system: T47D
TK-10 = test system: TK-10
U-251 = test system: U-251
UACC-257 = test system: UACC-257
UACC-62 = test system: UACC-62
UO-31 = test system: UO-31
CCRF-CEM = test system: CCRF-CEM
HL-60 = test system: HL-60
SK-OV-3 = test system: SK-OV-3
SNB-75 = test system: SNB-75
RXF 393 = test system: RXF 393

Measured: GI50

Nc1nc(O)c2c(n1)NCN(CCCN1CCOCC1)C2
> 100 µM: HCT-15
inactive: 786-0 > 100 µM | A498 > 100 µM | A549 > 100 µM | ACHN > 100 µM | BT-549 > 100 µM | CAKI-1 > 100 µM | COLO 205 > 100 µM | DU-145 > 100 µM | EKVX > 100 µM | HCC 2998 > 100 µM | HCT-116 > 100 µM | HOP-62 > 100 µM | HOP-92 > 100 µM | HT-29 > 100 µM | Hs-578T > 100 µM | IGROV-1 > 100 µM | K562 > 100 µM | KM12 > 100 µM | LOX IMVI > 100 µM | M14 > 100 µM | MCF7 > 100 µM | MDA-MB-231 > 100 µM | MDA-MB-435 > 100 µM | MDA-N > 100 µM | MOLT-4 46.7 µM | Malme-3M > 100 µM | NCI-H226 > 100 µM | NCI-H23 > 100 µM | NCI-H460 > 100 µM | NCI-H522 > 100 µM | NCI/ADR-RES > 100 µM | OVCAR-3 55.3 µM | OVCAR-4 > 100 µM | OVCAR-5 > 100 µM | OVCAR-8 > 100 µM | PC-3 > 100 µM | RPMI-8226 > 100 µM | SF-268 > 100 µM | SF-295 > 100 µM | SF-539 > 100 µM | SK-MEL-28 > 100 µM | SK-MEL-2 > 100 µM | SK-MEL-5 > 100 µM | SN12C > 100 µM | SNB-19 > 100 µM | SR > 100 µM | SW-620 > 100 µM | T47D > 100 µM | TK-10 > 100 µM | U-251 > 100 µM | UACC-257 > 100 µM | UACC-62 > 100 µM | UO-31 > 100 µM

CC(C)OC(=O)NNc1cc(Cl)ccc1Cl
active: MOLT-4 0.0611 µM
inactive: 786-0 > 100 µM | A498 24.3 µM | A549 64 µM | ACHN > 100 µM | BT-549 64.3 µM | CAKI-1 79.6 µM | CCRF-CEM 59.7 µM | COLO 205 > 100 µM | DU-145 > 100 µM | EKVX 30.8 µM | HCC 2998 61 µM | HCT-116 73.3 µM | HL-60 21.7 µM | HOP-62 > 100 µM | HOP-92 34.8 µM | HT-29 > 100 µM | Hs-578T 81.5 µM | IGROV-1 55.5 µM | K562 19.2 µM | KM12 65.3 µM | LOX IMVI 67.3 µM | M14 > 100 µM | MCF7 57.9 µM | MDA-MB-231 > 100 µM | MDA-MB-435 > 100 µM | MDA-N 73.6 µM | Malme-3M 35.6 µM | NCI-H23 > 100 µM | NCI-H460 80.7 µM | NCI-H522 31.5 µM | NCI/ADR-RES > 100 µM | OVCAR-3 > 100 µM | OVCAR-5 > 100 µM | OVCAR-8 > 100 µM | PC-3 56.8 µM | RPMI-8226 44.5 µM | SF-268 44.8 µM | SF-295 62.8 µM | SF-539 > 100 µM | SK-MEL-28 > 100 µM | SK-MEL-2 65.8 µM | SK-MEL-5 39.4 µM | SK-OV-3 > 100 µM | SN12C > 100 µM | SNB-19 > 100 µM | SNB-75 58.3 µM | SW-620 > 100 µM | T47D 42 µM | TK-10 36.6 µM | U-251 > 100 µM | UACC-257 39.7 µM | UACC-62 43.7 µM | UO-31 > 100 µM
91.2 µM: HCT-15

O=C1OC(c2ccccc2)=N/C1=C\c1ccc(Br)cc1
> 100 µM: HCT-15
inactive: 786-0 > 100 µM | A498 > 100 µM | A549 > 100 µM | ACHN > 100 µM | BT-549 > 100 µM | CAKI-1 > 100 µM | CCRF-CEM 26.4 µM | COLO 205 > 100 µM | DU-145 > 100 µM | EKVX > 100 µM | HCC 2998 > 100 µM | HCT-116 > 100 µM | HL-60 > 100 µM | HOP-62 > 100 µM | HOP-92 > 100 µM | HT-29 > 100 µM | Hs-578T > 100 µM | IGROV-1 > 100 µM | K562 > 100 µM | KM12 > 100 µM | LOX IMVI > 100 µM | M14 > 100 µM | MCF7 > 100 µM | MDA-MB-231 > 100 µM | MDA-MB-435 > 100 µM | MDA-N > 100 µM | MOLT-4 94 µM | Malme-3M 74.8 µM | NCI-H226 > 100 µM | NCI-H23 > 100 µM | NCI-H460 > 100 µM | NCI-H522 > 100 µM | OVCAR-3 > 100 µM | OVCAR-4 > 100 µM | OVCAR-5 > 100 µM | OVCAR-8 > 100 µM | PC-3 > 100 µM | RPMI-8226 96.6 µM | RXF 393 > 100 µM | SF-268 > 100 µM | SF-295 > 100 µM | SF-539 > 100 µM | SK-MEL-28 > 100 µM | SK-MEL-2 > 100 µM | SK-MEL-5 > 100 µM | SK-OV-3 > 100 µM | SN12C > 100 µM | SNB-19 > 100 µM | SNB-75 > 100 µM | SR 66.2 µM | SW-620 > 100 µM | T47D > 100 µM | TK-10 > 100 µM | U-251 > 100 µM | UACC-257 > 100 µM | UACC-62 > 100 µM
